From PubChem BioAssay (NCI)
Several values for one entry are separate records, joined by “and”; a condition that tells them apart may be missing. Identical values can stand only once.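 Grown in 96-well plates, cells were treated for 48 hours with each compound at five concentrations. Insufficient inhibition: endpoint recorded as highest concentration tested. Here, GI50 denotes the concentration required for 50% inhibition of growth. Definition used: TGI = concentration required for complete inhibition of growth.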 Activity calls are given as the source filed them. Cut-off read from the data, not from the text of the source: active = GI50 below about 0.43 µM; inactive = the rest.

What follows are compounds tested on MDA-MB-468 breast (assay: NCI-60 cell line screen, 48 h).

| SMILES | GI50 | TGI | outcome |
| --- | --- | --- | --- |
| O=C(CC1(O)C(=O)N(Cc2ccccc2)c2ccc(Cl)cc21)c1ccc(C(=O)NCC2CCC3(CC2)OOC2(CCCCC2)OO3)cc1 (stereo not given) | 1.27 µM | 4.26 µM |  |
| Cc1c(-c2ccc(C3CCCCC3)cc2)nc2ccc(F)cc2c1C(=O)O | 19.1 µM | > 100 µM |  |
| CCCCCCCCCCCCCCCC1=NCCN1 | 2.22 µM | 4.07 µM |  |
| C[C@H]1/C(=C/C(=O)OCCN(C)C)CC[C@H]2[C@H]1C(=O)C[C@H]1C(C)(C)[C@@H](O)CC[C@]21C | > 100 µM | > 100 µM |  |
| CCCCC(CCCCCC(CCCC)NCc1ccc2c(c1)OCO2)NCc1ccc2c(c1)OCO2 (stereo not given) | 0.48 µM | 0.981 µM |  |
| COc1cc(OC)cc(-c2ccc(-c3ccc(C(=N)N)cn3)o2)c1 | 1.51 µM | 3.1 µM |  |
| COc1ccc2c(c1)c(-c1nc(-c3c[nH]c4ncccc34)cs1)cn2CCCN1CCCCC1 | 1.86 µM | 3.56 µM |  |
| COC1C(O)CC(OC2CC(OC3CC(O[C@@H]4C(=O)c5c(cc6cc(OC7CC(OC8CC(O)C(O)C(C)O8)C(O)C(C)O7)c(C)c(O)c6c5O)CC4[C@H](OC)C(=O)O)OC(C)C3O)OC(C)C2O)OC1C (stereo not given in full) | 2.59 µM | 12.4 µM |  |
| CC1CCN(Cc2ccc(NC(=O)c3cc4ccc5cccnc5c4[nH]3)cc2)CC1 | 2.61 µM | 16.3 µM |  |
| CCCCOC(=O)c1ccc(N)cc1 | 84.6 µM | > 100 µM |  |
| Cn1ccnc1C(=O)/C=C/c1ccc(NC(=O)Nc2ccccc2)cc1 | 11.4 µM | 27.5 µM |  |
| CC/C=C\C[C@H](F)C/C=C1/C(=O)C=C[C@@H]1C/C=C\CCCC(=O)OC | 5.26 µM | 17.2 µM |  |
| CC(=O)/C(=C/c1ccccc1)C(=O)CC(C)C | 11.1 µM | 28 µM |  |
| CSc1c(C2=C(c3cn(C)c4ccccc34)C(=O)NC2=O)c2ccccc2n1C | 0.562 µM | > 25 µM |  |
| C=C1C(=O)O[C@H]2[C@H]1CC/C(COC(=O)NCc1c[nH]c3ccccc13)=C\CC[C@@]1(C)O[C@@H]21 | 0.82 µM | 3.58 µM |  |
| CCCc1n(Cc2ccc3ccccc3c2)cc[n+]1Cc1ccc2ccccc2c1 | 0.277 µM | 0.98 µM |  |
| CCCCN1CCCC[C@@H]1C(=O)N[C@H](C(=O)N(C)[C@H](C[C@@H](OC(C)=O)c1nc(C(=O)NC2CCC(C(=O)OC)CC2)cs1)C(C)C)C(C)C (stereo not given in full) | 0.707 µM | 8.18 µM |  |
| O=C(CCl)NCCNc1nccc(Nc2ccc(S(=O)(=O)Nc3ccccn3)cc2)n1 | 1.05 µM | 4.53 µM |  |
| NC(=NCc1ccccc1)C(N=Nc1ccccc1)C(=O)NCc1ccccc1 (stereo not given) | 11.5 µM | 26.4 µM |  |

| SMILES | GI50 | TGI | outcome |
| --- | --- | --- | --- |
| O=C1/C(=C/c2ccccc2)CN(C(=O)C(Cl)Cl)C/C1=C\c1ccccc1 | 0.342 µM | 1.38 µM |  |
| Oc1ccc(Nc2ccc3ccccc3c2)cc1 | 8.05 µM | 26.7 µM |  |
| Nc1c(C(=O)Nc2ccccc2)sc2nc3c(cc12)CCCCC3 | 0.254 µM | 0.946 µM |  |
| CN(C)CCCN(CCC1CCCCC1)CCC1CCCCC1 | 1.46 µM | 3.07 µM |  |
| Cc1ccc(Nc2nccc(N(C)c3ccc4c(C)n(C)nc4c3)n2)cc1S(N)(=O)=O | 1.77 µM and 2.37 µM and 2.2 µM | > 100 µM and > 10 µM and 45.2 µM |  |
| O=C(O)[C@H](Cc1c[nH]c2ccccc12)N1C(=O)c2ccccc2C1=O | > 100 µM | > 100 µM |  |
| COc1ccc(/C=C2\CN(C(=O)C(Cl)Cl)C/C(=C\c3ccc(OC)cc3)C2=O)cc1 | 1.04 µM | 2.74 µM |  |
| CC(C)(C)Nc1nc2c(OCCc3ccccc3)cccn2c1-c1cccc(Oc2ccccc2)c1 | 2.2 µM | 6.75 µM |  |
| O=C1/C=C/[C@@H](O)[C@@H]2C[C@@H](O)C[C@H]2/C=C/CCC[C@H](CCc2cccc3ccccc23)O1 | 0.0253 µM | 0.0867 µM |  |
| COc1ccc(C=Nc2c(C(=O)Nc3cccc(Cl)c3C)sc3nc(C)c(C(=O)/C=C/c4ccc(OC)cc4)cc23)cc1 | 0.2 µM | 2.2 µM |  |
| CCN1CCC(Nc2ccnc3cc(Cl)ccc23)CC1 | 13.3 µM | 32 µM |  |
| O=c1oc2ccc(I)cc2c(=O)n1-c1ccc(F)cc1F | 2.23 µM | 5.69 µM |  |
| O=S(=O)(CCN1CCOCC1)Nc1cc(-c2ccc3ncnc(Nc4ccc(F)c(Cl)c4)c3c2)cnc1Cl | 0.198 µM | 1.56 µM |  |
| COc1cc2c(c(OC)c1OC)-c1ccc(O)cc1[C@@H](NC(C)=O)CC2 | 0.0244 µM | 0.0684 µM |  |
| Cc1ccc2oc(=O)cc(/C(=C3/C=CC=N3)c3ccc[nH]3)c2c1 | 0.243 µM | 1.02 µM |  |
| CCCCCCCCCCCCCCCCCc1nccn1CCOCCO |  |  | inactive |
| COc1cc(C2CC(c3cccc(Nc4ccnc5cc(Cl)ccc45)c3)=NN2c2ccc(Cl)cc2)cc(OC)c1OC (stereo not given) | 6.29 µM | > 100 µM |  |
| Cn1c(=O)c(Oc2ccc(F)cc2F)cc2cnc(NC(C)(C)CO)nc21 | > 25 µM | > 25 µM |  |
| C=C1CC2(CC(c3ccccc3Cl)OC(c3ccccc3Cl)C2)OC1=O (stereo not given) | 1.75 µM | 3.43 µM |  |
